Laboratory results: patent US8592462B2, “Pirfenidone treatment for patients with atypical liver function” (Intermune, Inc., priority 2008, dated 2013)

Tests used:
[1] = one year treatment, chronic pulmonary fibrosis; cited from earlier work
[2] = IPF patients, compassionate use; cited from earlier work
[3] = Gamma-glutamyl transferase observed in patients receiving pirfenidone; format: in vivo; conditions: some patients receiving pirfenidone
Excerpt: In some embodiments, the biomarker of liver function is alanine transaminase, aspartate transaminase, bilirubin, and/or alkaline phosphatase. […] In any of the embodiments described herein, biomarkers of liver function can exclude gamma-glutamyl transferase. In another embodiment, the abnormal level of alanine transaminase, aspartate transaminase, or alkaline phosphatase is greater than about 2.5-fold increased compared to the upper limit of normal (ULN). In a related embodiment, the abnormal level of alanine transaminase, aspartate transaminase, or alkaline phosphatase is greater than about 2.5- to about 5-fold increased compared to the upper limit of normal (ULN), i.e. a “liver function Grade 2 abnormality”. In some embodiments, the abnormal level of bilirubin is greater than about 1.5- to about 3-fold increased compared to the upper limit of normal (ULN), i.e., a “liver function Grade 2 abnormality”.

[4] = Study of 345 idiopathic pulmonary fibrosis patients on pirfenidone 2403 mg/day: liver function test (AST/ALT) abnormalities and response to dosing regimen; format: in vivo; design: key to Grade of AST or ALT abnormality after dose modification / Grade of ALT after dose modification / Grade of liver function test at resolution: 0: WNL; 1: >ULN-2.5 × ULN; >2.5-5 × ULN; 3: >5-20 × ULN; 4: >20 × ULN
Protocol: Patients begin pirfenidone treatment by receiving escalating doses of pirfenidone over a period of 15 days until the full maintenance dose is reached. Specifically, from days 1 to 7, patients are administered one capsule of 267 mg pirfenidone three times per day. During days 8 to 14, patients receive two capsules of 267 mg pirfenidone three times per day. From day 15 onward, patients are treated with three capsules of 267 mg pirfenidone three times per day. Pirfenidone is administered orally, and each dose should be taken with food. If the patient is unable to eat, then the pirfenidone dose should be taken with milk or juice (excluding grapefruit juice).
Once the full maintenance dose is reached, pirfenidone is administered orally to patients three times per day to provide a daily dose of 2403 mg pirfenidone. Each of the three doses of 801 mg pirfenidone includes three capsules of 267 mg pirfenidone each. The contents of the pirfenidone 267 mg capsules are pirfenidone (82.15%); croscarmellose sodium (8.15%); microcrystalline cellulose (7.39%); povidine, USP, EP (1.85%); and magnesium stearate (0.46%).
Patients are treated with pirfenidone for up to 72 weeks. Some patients are treated longer than 72 weeks. At weeks 2, 4, 6, 12, and every 12 weeks (±2 weeks) thereafter during the treatment period, with the exception of week 72 and the treatment completion visit, patients are examined and histories are collected as detailed in the steps below.
4. Clinical laboratory tests are performed, including hematology, serum chemistries, pregnancy tests for women of childbearing capacity, and urinalysis with microscopic examination.
Patients were treated with pirfenidone in accordance with Example 1. […] As described in Example 1, serum chemistry tests were performed at scheduled intervals during the treatment period to monitor various parameters, including biomarkers of liver function such as alanine transaminase (ALT), aspartate transaminase (AST), bilirubin, alkaline phosphate (ALP), and gamma-glutamyl transferase (GGT).
The patient continued to receive the full target dose of 2403 mg/day. While receiving the full target dose, the patient was monitored for AST, ALT, and bilirubin levels.
In one patient, study drug dose was reduced to 1602 mg/day for the remainder of study participation (from Day 51 to Day 602), and the Grade 1 AST or ALT abnormality returned to Grade 0. For the second patient, study drug dose was reduced to 1602 mg/day and then increased to 2403 mg/day for remainder of study participation, and ALT returned to Grade 0. The third patient had study drug dose reduced to 801 mg/day, ultimately completing study at 1602 mg/day, at which time ALT returned to Grade 0. The remaining patients (46 patients) received no dose modification.

## Cc1ccc(=O)n(-c2ccccc2)c1 [pirfenidone, 5-methyl-1-phenyl-2-(1H)-pyridone]
[1]
  liver dysfunctions, hematologic abnormalities, allergic or shock reactions during treatment: no liver dysfunctions, hematologic abnormalities, or allergic or shock reactions
[2]
  adverse events in hematology or blood chemistry: No adverse events in hematology or blood chemistry
[3]
  gamma-glutamyl transferase: Elevated gamma-glutamyl transferase has been observed in some patients receiving pirfenidone, without clinical liver impairment
[4]; Grade 1 patient, dose reduced to 801 mg/day, completing study at 1602 mg/day
  Grade of ALT after dose modification: 0
[4]; Grade 1 patient, dose reduced to 1602 mg/day for remainder of study (Day 51 to Day 602)
  Grade of AST or ALT abnormality after dose modification: 0
[4]; Grade 1 patient, dose reduced to 1602 mg/day, then increased to 2403 mg/day for remainder of study
  Grade of ALT after dose modification: 0
[4]; Grade 2 patient continued on 2403 mg/day, history of steatosis, Grade 1 before treatment, dose reduced for unrelated reasons (rash, diarrhea)
  Grade of elevation at end of study: 1 (>ULN-2.5 × ULN)
[4]; Grade 2 patient, no dose modification, Grade 1 AST and ALT at baseline
  Grade of AST elevation at the last documented assessment: 1 (>ULN-2.5 × ULN)
[4]; Grade 2 patient, continued full daily dose of 2403 mg/day
  Grade of liver function test at resolution: 0
[4]; Grade 2 patient, treatment temporarily discontinued for acute cerebral artery occlusion, escalated back to 2403 mg/day
  transaminase levels after re-escalation: returned to normal
[4]; Grade 3 patient with Grade 1 at screening and/or baseline, discontinued for lung transplant
  Grade of abnormality at last documented values: 1 (>ULN-2.5 × ULN)
[4]; Grade 3 patient with Grade 1 at screening and/or baseline, study drug interrupted, then discontinued
  AST and ALT elevations at the last documented value: normalized
[4]; after pirfenidone 2403 mg/day
  patients developing a Grade 2 liver function test abnormality in AST and/or ALT levels: Fifteen
[4]; after pirfenidone administration
  patients developing Grade 3 liver function abnormality in AST and/or ALT levels: Four
[4]; of 345 IPF patients, 2403 mg/day, patients without a baseline liver function abnormality
  patients exhibiting a Grade 1 elevation in AST or ALT levels after pirfenidone administration: 49 patients
[4]; of the 49 Grade 1 patients
  patients with Grade 1 liver function test elevation having a treatment emergent adverse event of increased AST or ALT: three
[4]; of the fifteen Grade 2 patients
  patients with Grade 2 abnormality with reported treatment emergent adverse events of increased AST or ALT or hepatitis: 12 patients
[4]; of the four Grade 3 patients
  patients who discontinued study drug for elevated liver function tests: Two
[4]; of the twelve Grade 2 patients with adverse event, Grade 2 AST coincided with Grade 3 ALT
  patients who discontinued treatment due to abnormal liver function tests in AST and/or ALT levels: One
[4]; one of the seven Grade 2 patients with permanent dose reduction, rechallenged at 2403 mg/day
  outcome of rechallenge with the full dose: recurrence of Grade 2 elevation in ALT levels
[4]; seven Grade 2 patients with permanent dose reduction (3 at 801 mg/day, 4 at 1602 mg/day)
  transaminases at study completion: resolution of transaminases, except for one patient that had a Grade 1 elevation at study completion
[4]; two Grade 2 patients, temporary dose reduction or discontinuation, rechallenged and escalated back to 2403 mg/day
  liver enzymes at study completion: normal liver enzymes
[4]; two Grade 3 patients who discontinued for elevated liver function tests, Grade 2 and Grade 3 last documented
  resolution of abnormalities after discontinuation: had not resolved
